Experimental data reported in patent US5733569A, “Galenic compositions comprising calcitonin and their use” (Novartis Corporation, priority 1982, dated 1998).

Key:
Pen. steckii = assay: preservative activity against test fungus in calcitonin nasal composition; conditions: chlorbutanol at 0.6% in calcitonin nasal pharmaceutical compositions
Text: Very many well-known preserving agents present themselves for possible use in calcitonin pharmaceutical compositions. However experiment has shown that not all are suitable for practical use in relation to a calcitonin nasal spray.

[1] = tested on: ciliary beating frequency of rat trachea; assay: ciliary beating frequency, microphoto-oscillographic method of L. Chevance et al; conditions: at 0.6%, within 20 minutes
Procedure: 70, […] (1970). These are just some of the disadvantageous effects that can be encountered.
Moreover the compositions are well tolerated as indicated in standard tests, e.g. in that less than 50% inhibition of ciliary beating frequency is observed up to 20 minutes after administration, according to the microphoto-oscillographic method of L. Chevance et al, Acta Otolaryng. 70, 26-28 (1970).

[2] = relative bio-availability study nasal administration/intra-muscular injection of salmon calcitonin in healthy volunteers; assay type: in vivo; conditions: for time serum levels remain above the detectability limit: detectability limit 26 pg/ml
Procedure: The study is conducted with 12 healthy volunteers, 6 male and 6 female, with a body weight of from 50 to 85 kg. Each subject receives 4 administrations of salmon calcitonin, one intra-muscularly and 3 nasally. Administration is effected at the following dosages:
B. Intra-muscular: 50 MRC units.
Nasal administration is effected using composition in accordance with example 1 and a spray-applicator delivering 55 MRC units per individual spray dosage. For the purposes of administration the subject is laid on the back with the head tilted backwards for 5 minutes. The nostrils are cleaned by blowing of the nose immediately prior to administration.
Intra-muscular administration is effected by injection of a single 1 ml dose of a composition similar to that of example 1, but omitting benzalkonium chloride and containing 50 MRC units into the glutaeus medius muscle.
Each subject receives the 4 administrations in randomized sequence, and at least 3 days are allowed between consecutive administrations. Each administration is effected in the morning after a light breakfast from which milk, butter and cheese is excluded. 100 ml water or orange juice is taken hourly following treatment to maintain urinary output. Further food is allowed not earlier than 4 hours after treatment.
Blood samples are taken immediately prior to administration (control), and at intervals of 5, 15, 30, 60, 90, 120, 180, 240, 360 and 480 minutes following administration. For the control a 20 ml sample is taken. All subsequent samples are 2 ml samples.
The concentration of salmon calcitonin in each serum sample is measured by radio-immuno-assay. Blood-pressure is controlled during the course of the trial and urine-samples tested for possible adverse reaction. Occurrence of side-effects, e.g. symptoms of nausea, is noted.
The AUC ("area under curve") for salmon calcitonin plasma concentration is calculated statistically, once employing all value, including those below the 26 pg/ml detectability limit, once with values below the detectability limit read as zero. Maximal plasma concentration and time at which this is reached are also determined. Relative bio-availability for nasal administration is determined from the relative dosage-standardized AUC (i.e. based on 50 MRC units) following nasal and intra-muscular administration.

| SMILES | time required to reduce the cell count to less than 0.1% (Pen. steckii) | inhibition of the ciliary beating frequency [1] | AUC values compared with 50 MRC units i.m. ([2]; 110 MRC units intra-nasally) | AUC values compared with 50 MRC units i.m. ([2]; 220 MRC units intra-nasally) | F rel ([2]; both sexes, plasma, inhaled or intranasal, nasal vs intra-muscular, human, read-out: bio-availability (blood-plasma concentration) following nasal administration relative to levels achieved on intra-muscular injection) [%] | time serum levels remain above the detectability limit ([2]; i.m. application of 50 MRC units) [h] | time serum levels remain above the detectability limit ([2]; nasal application of 110 MRC units) [h] | adverse side-effects following nasal administrations ([2]; nasal, up to the highest dosage of 220 MRC units) |
| --- | --- | --- | --- | --- | --- | --- | --- | --- |
| CC(C)(O)C(Cl)(Cl)Cl [chlorbutanol] | more than 3 days | more than 50% | – | – | – | – | – | – |
| CC(C)C[C@H](NC(=O)[C@H](CCCCN)NC(=O)CNC(=O)[C@H](CC(C)C)NC(=O)[C@@H](NC(=O)[C@@H]1CSSC[C@H](N)C(=O)N[C@@H](CO)C(=O)N[C@@H](CC(N)=O)C(=O)N[C@@H](CC(C)C)C(=O)N[C@@H](CO)C(=O)N[C@@H]([C@@H](C)O)C(=O)N1)C(C)C)C(=O)N[C@@H](CO)C(=O)N[C@@H](CCC(N)=O)C(=O)N[C@@H](CCC(=O)O)C(=O)N[C@@H](CC(C)C)C(=O)N[C@@H](Cc1c[nH]cn1)C(=O)N[C@@H](CCCCN)C(=O)N[C@@H](CC(C)C)C(=O)N[C@@H](CCC(N)=O)C(=O)N[C@H](C(=O)N[C@@H](Cc1ccc(O)cc1)C(=O)N1CCC[C@H]1C(=O)N[C@@H](CCCNC(=N)N)C(=O)N[C@H](C(=O)N[C@@H](CC(N)=O)C(=O)N[C@H](C(=O)NCC(=O)N[C@@H](CO)C(=O)NCC(=O)N[C@H](C(=O)N1CCC[C@H]1C(N)=O)[C@@H](C)O)[C@@H](C)O)[C@@H](C)O)[C@@H](C)O [salmon calcitonin] | – | – | comparable | comparable | ~50 | 6 | 8 | No adverse side-effects |
